Data: patent US20230218746A1, “COMPOSITIONS AND METHODS RELATING TO ANTIVIRAL THERAPEUTICS” (priority 2020, published 2023)

Key:
SARS-CoV-2 mimics = assay: In vivo clearance of the SARS-CoV-2 mimicking virus by nanodecoys in mice; set-up: species or system CD1 mice; settings: mouse
COVID-19 = settings: hospitalized COVID-19 patients; cited from earlier work

rACE2: free recombinant ACE2 protein, same amount of ACE2 as on the nanodecoys
amounts of SARS-CoV-2 mimics in lungs (ex vivo imaging) (SARS-CoV-2 mimics): ineffective

lopinavir/ritonavir
effect on overall mortality, necessity for mechanical ventilation, and length of hospital stay (COVID-19): little or no effect

CCN(CCO)CCCC(C)Nc1ccnc2cc(Cl)ccc12 (stereo not drawn) [hydroxychloroquine]
effect on overall mortality, necessity for mechanical ventilation, and length of hospital stay (COVID-19): little or no effect
